From ChEMBL document CHEMBL2010754, “Unusual isomeric corniculatolides from mangrove, Aegiceras corniculatum” (J Nat Prod, 2012)
The source made the active and inactive calls.

Assays:
Type in all cases: functional, organism-based
Staphylococcus aureus = test: Antibacterial activity against Staphylococcus aureus by agar diffusion method
Bacillus subtilis = test: Antibacterial activity against Bacillus subtilis by agar diffusion method
Micrococcus luteus = test: Antibacterial activity against Micrococcus luteus by agar diffusion method
Escherichia coli = test: Antibacterial activity against Escherichia coli by agar diffusion method
Klebsiella pneumoniae = test: Antibacterial activity against Klebsiella pneumoniae by agar diffusion method
Aspergillus niger = test: Antifungal activity against Aspergillus niger by agar diffusion method
Aspergillus terreus = test: Antifungal activity against Aspergillus terreus by agar diffusion method
Aspergillus flavus = test: Antifungal activity against Aspergillus flavus by agar diffusion method

Measured: Activity

O=C1CCc2ccc(O)c(c2)Oc2ccc(cc2)CCCO1
inactive: all assays above

O=C1CCc2ccc(cc2)Oc2cc(ccc2O)CCCO1
inactive: all assays above

COc1ccc2cc1Oc1ccc(cc1)CCC(=O)OCCC2
inactive: all assays above

COc1c(O)cc2cc1Oc1ccc(cc1)CCCOC(=O)CC2
inactive: all assays above

COc1ccc2cc1Oc1ccc(cc1)CCCOC(=O)CC2
inactive: all assays above
